# Marks after values point to notes of the source that are not given here.
# Experiments:
# Type in all cases: in vivo, human
# [1] = test system: prostacyclin (PGI2) metabolite 6-keto prostaglandin F1-alpha; assay: Enzyme immunoassay of prostacyclin metabolite in blood after treatment
# Method: Blood was drawn from the subjects prior to consumption of any food. After the initial blood was drawn, the subjects were divided into four groups. One group consumed 81 mg of aspirin (acetylsalicylic acid) (Bayer pediatric aspirin). A second group consumed a high cocoa polyphenol beverage consisting of 18.75 g of procyanidin enriched cocoa powder derived from Sulawesi beans (containing 51.1 mg/g of total procyanidins, 11.2% fat, 0.092% caffeine, 1.618% theobromine) and 12.5 g of sucrose mixed with 300 ml of distilled water. A third group consumed the high cocoa procyanidin beverage and 81 mg of baby aspirin. […] The blood samples were also analyzed for changes in leukotriene, prostacyclin and thromboxane levels resulting from the four treatment regimes. […] The prostacyclin (PGI2) metabolite 6-keto prostaglandin F1-alpha was measured with Cayman enzyme immunoassay #515211, the thromboxane (TXA2) metabolite TXB2 was measured with Cayman enzyme immunoassay 519031, and leukotrienes C4, D4 and E4 were quantified using the immunoassay EA-39 from Oxford Biomedical Research. P values were calculated using the paired sample T-test. […]
# [2] = test system: thromboxane (TXA2) metabolite TXB2; assay: Enzyme immunoassay of thromboxane metabolite in blood after treatment
# Method: Blood was drawn from the subjects prior to consumption of any food. After the initial blood was drawn, the subjects were divided into four groups. One group consumed 81 mg of aspirin (acetylsalicylic acid) (Bayer pediatric aspirin). A second group consumed a high cocoa polyphenol beverage consisting of 18.75 g of procyanidin enriched cocoa powder derived from Sulawesi beans (containing 51.1 mg/g of total procyanidins, 11.2% fat, 0.092% caffeine, 1.618% theobromine) and 12.5 g of sucrose mixed with 300 ml of distilled water. A third group consumed the high cocoa procyanidin beverage and 81 mg of baby aspirin. The final group consumed 81 mg of baby aspirin and a procyanidin deficient cocoa beverage consisting of 18.75 g of cocoa powder (containing 0.45 mg/g total procyanidins, 9.87% fat, 2.063% theobromine, 0.234% caffeine) and 12.5 g of sucrose mixed with 300 ml of distilled water. During the test period the subjects were permitted to consume water, caffeine-free diet soda, bagels, low fat cream cheese, and bananas. Blood was drawn from each of the subjects two hours and six hours post consumption of the treatment. Venous blood was aspirated into evacuated tubes containing 0.5 ml of 3.2% buffered sodium citrate solution.
# The blood samples were also analyzed for changes in leukotriene, prostacyclin and thromboxane levels resulting from the four treatment regimes. Immunoassay procedures were conducted as described by Westcott et al, “Analysis Of 6-Keto PGF1 Alpha, 5-HETE, And LTC4 In Rat Lung: Comparison Of GM/MS, RIA and EIA”, Prostaglandins 32:857-873, 1986; Yakota et al, “Enzyme Immunoassay Of Prostanoids In Blood And Urine”, Adv. Prostgl.Thrombox. Leukot. Res. 15:33-34, 1985; and Schramm et al, “Differential Effects of Small and Large Molecular Weight Phytochemicals on Endothelial Cell Eicosanoid Secretion” J Agric Food Chem 46:1900-1905, 1998. The prostacyclin (PGI2) metabolite 6-keto prostaglandin F1-alpha was measured with Cayman enzyme immunoassay #515211, the thromboxane (TXA2) metabolite TXB2 was measured with Cayman enzyme immunoassay 519031, and leukotrienes C4, D4 and E4 were quantified using the immunoassay EA-39 from Oxford Biomedical Research. P values were calculated using the paired sample T-test. Values of p<0.05 were considered to be statistically significant.
# [3] = test system: leukotrienes C4, D4 and E4; assay: Immunoassay of leukotrienes in blood after treatment
# Method: Blood was drawn from the subjects prior to consumption of any food. After the initial blood was drawn, the subjects were divided into four groups. One group consumed 81 mg of aspirin (acetylsalicylic acid) (Bayer pediatric aspirin). A second group consumed a high cocoa polyphenol beverage consisting of 18.75 g of procyanidin enriched cocoa powder derived from Sulawesi beans (containing 51.1 mg/g of total procyanidins, 11.2% fat, 0.092% caffeine, 1.618% theobromine) and 12.5 g of sucrose mixed with 300 ml of distilled water. A third group consumed the high cocoa procyanidin beverage and 81 mg of baby aspirin. The final group consumed 81 mg of baby aspirin and a procyanidin deficient cocoa beverage consisting of 18.75 g of cocoa powder (containing 0.45 mg/g total procyanidins, 9.87% fat, 2.063% theobromine, 0.234% caffeine) and 12.5 g of sucrose mixed with 300 ml of distilled water. During the test period the subjects were permitted to consume water, caffeine-free diet soda, bagels, low fat cream cheese, and bananas. Blood was drawn from each of the subjects two hours and six hours post consumption of the treatment. Venous blood was aspirated into evacuated tubes containing 0.5 ml of 3.2% buffered sodium citrate solution. The blood samples were also analyzed for changes in leukotriene, prostacyclin and thromboxane levels resulting from the four treatment regimes. Immunoassay procedures were conducted as described by Westcott et al, “Analysis Of 6-Keto PGF1 Alpha, 5-HETE, And LTC4 In Rat Lung: Comparison Of GM/MS, RIA and EIA”, Prostaglandins 32:857-873, 1986; Yakota et al, “Enzyme Immunoassay Of Prostanoids In Blood And Urine”, Adv. Prostgl.Thrombox. Leukot. Res. 15:33-34, 1985; and Schramm et al, “Differential Effects of Small and Large Molecular Weight Phytochemicals on Endothelial Cell Eicosanoid Secretion” J Agric Food Chem 46:1900-1905, 1998. The prostacyclin (PGI2) metabolite 6-keto prostaglandin F1-alpha was measured with Cayman enzyme immunoassay #515211, the thromboxane (TXA2) metabolite TXB2 was measured with Cayman enzyme immunoassay 519031, and leukotrienes C4, D4 and E4 were quantified using the immunoassay EA-39 from Oxford Biomedical Research. P values were calculated using the paired sample T-test. Values of p<0.05 were considered to be statistically significant.
# [4] = test system: activated conformation of the GPIIb/IIIa platelet receptor; assay: Ex vivo flow cytometry (PAC1) of activated GPIIb/IIIa on platelets after treatment; conditions: at 6 hours compared to baseline
# Method: The subjects used in the previous study also participated in the surface protein expression study. The methodology with respect to treatment regimes and collection of blood was identical to that which was outlined in the previous example. Within 10 minutes of draw, whole blood was incubated in polystyrene tubes for 5 minutes at room temperature with 10 μm HEPES buffer (pH 7.4, unstimulated control), 20 or 100 μm ADP or 20 μtm epinephrine (BioData, Horsham, Pa.) in the presence or absence of the peptide […] (Sigma, St. Louis, Mo.). After 5 minutes, samples were suspended in 1 ml HEPES buffer and 100 μm of sample were transferred to tubes containing saturating concentrations (20 μm ) each of the following fluorescent-labeled monoclonal antibodies: PAC1-fluorescein isothiocyanate (FITC), anti-CD62P-phycoerythrin (PE) and anti-CD42a-PerCP. PAC1 recognizes the activated conformation of the fibrinogen-binding receptor GPIIb-IIIa and anti-CD62P recognizes P-selectin, present on the surface of activated platelets. […] All samples were analyzed within 48 hours on a FACScan flow cytometer using […] software. […] Twenty thousand events were collected in list mode with all light-scatter and fluorescence parameters in logarithmic code. […] The platelet-dependent hemostasis data were also analyzed for statistical differences among treatment groups for each time point, baseline, 2 and 6 hour.
# [5] = test system: P-selectin (CD62P); assay: Ex vivo flow cytometry of platelet surface expression of P-selectin after treatment
# Method: The subjects used in the previous study also participated in the surface protein expression study. The methodology with respect to treatment regimes and collection of blood was identical to that which was outlined in the previous example. Within 10 minutes of draw, whole blood was incubated in polystyrene tubes for 5 minutes at room temperature with 10 μm HEPES buffer (pH 7.4, unstimulated control), 20 or 100 μm ADP or 20 μtm epinephrine (BioData, Horsham, Pa.) in the presence or absence of the peptide […] (Sigma, St. Louis, Mo.). After 5 minutes, samples were suspended in 1 ml HEPES buffer and 100 μm of sample were transferred to tubes containing saturating concentrations (20 μm ) each of the following fluorescent-labeled monoclonal antibodies: PAC1-fluorescein isothiocyanate (FITC), anti-CD62P-phycoerythrin (PE) and anti-CD42a-PerCP. PAC1 recognizes the activated conformation of the fibrinogen-binding receptor GPIIb-IIIa and anti-CD62P recognizes P-selectin, present on the surface of activated platelets. Anti-CD42a recognizes GP1b-1X, which is on the surface of both activated and resting platelets. Mouse IgG, FITC and mouse IgG, PE were used as isotype controls. The […]-peptide was used to block binding of the PAC1 antibody to platelets and thus set the negative control marker on the flow cytometer. Antibodies and isotype controls were purchased from Becton Dickinson Immunocytometry Systems, Inc., San Jose, Calif. Whole blood samples in the presence and absence of the agonists ADP and epinephrine were incubated with monoclonal antibodies or isotype control for 20 minutes in the dark at room temperature. Samples were then fixed in filtered 1% paraformaldehyde (pH 7.2) and stored in the dark at 2-8° C. All samples were analyzed within 48 hours on a FACScan flow cytometer using […] software. The flow cytometer performance was verified using 1, 2 and 10 μm calibration beads (Becton Dickinson Immunocytometry Systems, Inc., San Jose, Calif. and Flow Cytometry Systems, Research Triangle Park, N.C.). Twenty thousand events were collected in list mode with all light-scatter and fluorescence parameters in logarithmic code. Platelets were gated on the basis of […] CD42a expression. Activated platelets were defined as the percentage of CD42a positive events coexpressing the activated conformation of GPIIb-IIa or P-selectin. Platelet microparticles were defined as the percentage of CD42a positive events less than 2 μm in size. To perform the statistical analysis of the results, Friedman's repeated measures ANOVA on ranks (RM ANOVA on ranks) was used to compare the baseline, 2 and 6 hour results in each treatment group. Tukey's all pairwise comparison was used for post hoc multiple comparisons. […] The platelet-dependent hemostasis data were also analyzed for statistical differences among treatment groups for each time point, baseline, 2 and 6 hour.
smiles,measurement,setting,value
"CC(=O)Oc1ccccc1C(=O)O [Aspirin, acetylsalicylic acid]",Prostacyclin,[1]; 2 hrs post consumption,103
same,Prostacyclin,[1]; 6 hrs post consumption,104
same,TXB2/PG12 ratio,[2]; 2 hrs post consumption,89
same,Thromboxane,[2]; 2 hrs post consumption,91
same,TXB2/PG12 ratio,[2]; 6 hrs post consumption,86
same,Thromboxane,[2]; 6 hrs post consumption,89
same,LT/PG12 ratio,[3]; 2 hrs post consumption,99
same,Leukotrienes,[3]; 2 hrs post consumption,101
same,LT/PG12 ratio,[3]; 6 hrs post consumption,100
same,Leukotrienes,[3]; 6 hrs post consumption,100
same,epinephrine-induced GPIIb/IIIa expression,[4],suppressed
same,"% CD62 + Platelets, Median","[5]; 20 μM ADP, 0 Hour (before consumption)",64.5%
same,"% CD62 + Platelets, Median","[5]; 20 μM ADP, 2 Hour",60.3%
same,"% CD62 + Platelets, Median","[5]; 20 μM ADP, 6 Hour",60.8%
same,"% CD62 + Platelets, Median","[5]; 20 μM Epinephrine, 0 Hour (before consumption)",7.9%
same,"% CD62 + Platelets, Median","[5]; 20 μM Epinephrine, 2 Hour",6.2%
same,"% CD62 + Platelets, Median","[5]; 20 μM Epinephrine, 6 Hour",4.7* %
same,"% CD62 + Platelets, Median","[5]; Unstimulated, 0 Hour (before consumption)",1.4%
same,"% CD62 + Platelets, Median","[5]; Unstimulated, 2 Hour",1.5%
same,"% CD62 + Platelets, Median","[5]; Unstimulated, 6 Hour",1.3%
same,epinephrine-induced P-selectin expression,"[5]; at 6 hours compared to baseline, in words",suppressed

# Source: US6524630B2, “Use of cocoa procyanidins combined with acelylsalicyclic acid as an anti-platelet therapy” (Mars, Incorporated, priority 2000, dated 2003)
